Values after ≈ are worked out from the molar mass of the structure shown.
Assays:
Staphylococcus aureus [1] = experiment: Antibacterial activity against Staphylococcus aureus ATCC 6538; format: functional
Trypanosoma brucei = experiment: Antitrypanosomal activity against bloodstream form of Trypanosoma brucei clone 427-221a measured after 24 hrs by resazurin dye based assay; format: functional
[2] = Selectivity ratio of MIC for cytotoxicity against human HL-60 cells to MIC for antitrypanosomal activity against bloodstream form of Trypanosoma brucei clone 427-221a; format: toxicity, cell-based
[3] = test system: Staphylococcus epidermidis; experiment: Antibacterial activity against Staphylococcus epidermidis 830/19; format: functional
[4] = test system: Staphylococcus epidermidis; experiment: Antibacterial activity against Staphylococcus epidermidis 851/19; format: functional
[5] = test system: Staphylococcus epidermidis; experiment: Antibacterial activity against Staphylococcus epidermidis 834/19; format: functional
[6] = Selectivity ratio of GI50 for cytotoxicity against human HL-60 cells to GI50 for antitrypanosomal activity against bloodstream form of Trypanosoma brucei clone 427-221a; format: toxicity, cell-based; conditions: read-out: RatioGI50
[7] = test system: Staphylococcus epidermidis; experiment: Antibacterial activity against Staphylococcus epidermidis ATCC 12228; format: functional
Staphylococcus aureus [8] = experiment: Antibacterial activity against Staphylococcus aureus NCTC 4163; format: functional
Staphylococcus aureus [9] = experiment: Antibacterial activity against Staphylococcus aureus ATCC 29213; format: functional
Escherichia coli [10] = experiment: Antibacterial activity against Escherichia coli ATCC 25922; format: functional
[11] = test system: Staphylococcus epidermidis; experiment: Antibacterial activity against Staphylococcus epidermidis 840/19; format: functional
[12] = test system: Staphylococcus epidermidis; experiment: Antibacterial activity against Staphylococcus epidermidis 848/19; format: functional
Pseudomonas aeruginosa [13] = experiment: Antibacterial activity against Pseudomonas aeruginosa ATCC 15442; format: functional
[14] = test system: Staphylococcus epidermidis; experiment: Antibacterial activity against Staphylococcus epidermidis 825/19; format: functional
[15] = test system: Staphylococcus epidermidis; experiment: Antibacterial activity against Staphylococcus epidermidis 829/19; format: functional
Staphylococcus aureus [16] = experiment: Antibacterial activity against Staphylococcus aureus ATCC 25923; format: functional
Pseudomonas aeruginosa [17] = experiment: Antibacterial activity against Pseudomonas aeruginosa […]; format: functional
Escherichia coli [18] = experiment: Antibacterial activity against Escherichia coli NCTC 10538; format: functional
[19] = test system: Staphylococcus epidermidis; experiment: Antibacterial activity against Staphylococcus epidermidis 845/19; format: functional
[20] = (§1) Cytotoxicity against human HL-60 cells assessed as reduction in cell viability measured after 24 hrs by resazurin dye based assay; format: toxicity; conditions: HL-60 cells
HL-60 = experiment: as §1; format: toxicity; conditions: hl-60, 24 h
[21] = test system: Staphylococcus epidermidis; experiment: Antibacterial activity against Staphylococcus epidermidis ATCC 35984; format: functional
[22] = test system: Staphylococcus epidermidis; experiment: Potency index, ratio of ciprofloxacin MIC to test compound MIC for antibacterial activity against Staphylococcus epidermidis 825/19; format: functional
[23] = test system: Staphylococcus epidermidis; experiment: Potency index, ratio of ciprofloxacin MIC to test compound MIC for antibacterial activity against Staphylococcus epidermidis 830/19; format: functional
[24] = test system: Staphylococcus epidermidis; experiment: Potency index, ratio of ciprofloxacin MIC to test compound MIC for antibacterial activity against Staphylococcus epidermidis 845/19; format: functional

SMILES | MIC (Staphylococcus aureus [1]) [µg/mL] | GI50 (Trypanosoma brucei) [µM] | MIC (Trypanosoma brucei) [µM] | selectivity ratio [2] | MIC [3] [µg/mL] | MIC [4] [µg/mL] | MIC [5] [µg/mL] | selectivity ratio [6] | MIC [7] [µg/mL] | MIC (Staphylococcus aureus [8]) [µg/mL] | MIC (Staphylococcus aureus [9]) [µg/mL] | MIC (Escherichia coli [10]) [µg/mL] | MIC [11] [µg/mL] | MIC [12] [µg/mL] | MIC (Pseudomonas aeruginosa [13]) [µg/mL] | MIC [14] [µg/mL] | MIC [15] [µg/mL] | MIC (Staphylococcus aureus [16]) [µg/mL] | MIC (Pseudomonas aeruginosa [17]) [µg/mL] | MIC (Escherichia coli [18]) [µg/mL] | further results
CO[C@H]([C@H](C)[C@H]1O[C@@]2(CC[C@@](C)([C@H]3CC[C@@](CO)([C@@H]4O[C@@H]([C@H]5O[C@@](O)(COC(=O)NCc6ccccc6)[C@H](C)C[C@@H]5C)C[C@@H]4C)O3)O2)C[C@H](O)[C@H]1C)[C@H](C)C(=O)O | 1 (≈ 1.24 µM) | 0.31 | 1 (≈ 0.806 µg/mL) | 100 | 2 (≈ 2.48 µM) | 2 (≈ 2.48 µM) | 2 (≈ 2.48 µM) | 62.9 | 1 (≈ 1.24 µM) | 1 (≈ 1.24 µM) | 2 (≈ 2.48 µM) | > 256 | 2 (≈ 2.48 µM) | 2 (≈ 2.48 µM) | > 256 | 1 (≈ 1.24 µM) | 2 (≈ 2.48 µM) | 1 (≈ 1.24 µM) | > 256 | > 256 | MIC [19]: 2 µg/mL (≈ 2.48 µM); GI50 at 24 h [20]: 19.5 µM; MIC (HL-60): 100 µM (≈ 80.6 µg/mL); MIC [21]: 2 µg/mL (≈ 2.48 µM)
CO[C@H]([C@H](C)[C@H]1O[C@@]2(CC[C@@](C)([C@H]3CC[C@@](CO)([C@@H]4O[C@@H]([C@H]5O[C@@](O)(COC(=O)NCCCl)[C@H](C)C[C@@H]5C)C[C@@H]4C)O3)O2)C[C@H](O)[C@H]1C)[C@H](C)C(=O)O | 4 (≈ 5.14 µM) | 3.48 | 10 (≈ 7.78 µg/mL) | 10 | 4 (≈ 5.14 µM) | 4 (≈ 5.14 µM) | 4 (≈ 5.14 µM) | 6.4 | 2 (≈ 2.57 µM) | 2 (≈ 2.57 µM) | 2 (≈ 2.57 µM) | > 256 | 4 (≈ 5.14 µM) | 4 (≈ 5.14 µM) | > 256 | 2 (≈ 2.57 µM) | 4 (≈ 5.14 µM) | 2 (≈ 2.57 µM) | > 256 | > 256 | MIC [19]: 4 µg/mL (≈ 5.14 µM); GI50 at 24 h [20]: 22.4 µM; MIC (HL-60): 100 µM (≈ 77.8 µg/mL); MIC [21]: 8 µg/mL (≈ 10.3 µM)
CCCCNC(=O)OC[C@]1(O)O[C@H]([C@H]2C[C@H](C)[C@H]([C@]3(CO)CC[C@H]([C@]4(C)CC[C@]5(C[C@H](O)[C@@H](C)[C@@H]([C@@H](C)[C@@H](OC)[C@H](C)C(=O)O)O5)O4)O3)O2)[C@@H](C)C[C@H]1C | 1 (≈ 1.3 µM) | 0.47 | 10 (≈ 7.72 µg/mL) | 19 | 1 (≈ 1.3 µM) | 2 (≈ 2.59 µM) | 2 (≈ 2.59 µM) | 24.3 | 1 (≈ 1.3 µM) | 1 (≈ 1.3 µM) | 2 (≈ 2.59 µM) | > 256 | 2 (≈ 2.59 µM) | 2 (≈ 2.59 µM) | > 256 | 1 (≈ 1.3 µM) | 1 (≈ 1.3 µM) | 1 (≈ 1.3 µM) | > 256 | > 256 | MIC [19]: 2 µg/mL (≈ 2.59 µM); GI50 at 24 h [20]: 11.4 µM; MIC (HL-60): 100 µM (≈ 77.2 µg/mL); MIC [21]: 1 µg/mL (≈ 1.3 µM)
CO[C@H]([C@H](C)[C@H]1O[C@@]2(CC[C@@](C)([C@H]3CC[C@@](CO)([C@@H]4O[C@@H]([C@H]5O[C@@](O)(COC(=O)Nc6ccccc6)[C@H](C)C[C@@H]5C)C[C@@H]4C)O3)O2)C[C@H](O)[C@H]1C)[C@H](C)C(=O)O | 0.25 (≈ 0.316 µM) | 0.27 | 1 (≈ 0.792 µg/mL) | 100 | 0.25 (≈ 0.316 µM) | 0.5 (≈ 0.631 µM) | 0.5 (≈ 0.631 µM) | 33.1 | 0.25 (≈ 0.316 µM) | 0.25 (≈ 0.316 µM) | 0.25 (≈ 0.316 µM) | > 256 | 0.5 (≈ 0.631 µM) | 0.5 (≈ 0.631 µM) | > 256 | 0.25 (≈ 0.316 µM) | 0.25 (≈ 0.316 µM) | 0.25 (≈ 0.316 µM) | > 256 | > 256 | Ratio [22]: <=256; Ratio [23]: <=256; Ratio [24]: <=256; MIC [19]: 0.5 µg/mL (≈ 0.631 µM); GI50 at 24 h [20]: 8.94 µM; MIC (HL-60): 100 µM (≈ 79.2 µg/mL); MIC [21]: 0.5 µg/mL (≈ 0.631 µM)
